Measurements taken from ChEMBL document CHEMBL4138214, “Urokinase receptor derived peptides as potent inhibitors of the formyl peptide receptor type 1-triggered cell migration” (Eur J Med Chem, 2018).
Calls of active or inactive are those of the source. The rule behind the calls is not given here. Square brackets hold non-standard residues; d marks the D form. Peptide text beside a SMILES is read from it. 1Nal = N[C@@H](Cc1cccc2ccccc12)C(=O)O; 2Nal = N[C@@H](Cc1ccc2ccccc2c1)C(=O)O; pS = N[C@@H](COP(=O)(O)O)C(=O)O

Legend:
Format in all cases: cell-based
[1] = organism: Rattus norvegicus; assay: Antagonist activity at FPR1 in rat RBL-2H3/ETFR cells assessed as inhibition of fMLF-induced cell migration at 10 nM after 6 hrs by RTCA relative to fMLF
[2] = organism: Rattus norvegicus; assay: Inhibition of FITC-fMLF induced FPR1 internalization in rat RBL-2H3/ETFR cells at 10 uM preincubated for 30 mins followed by agonist addition measured after 30 mins by fluorescence assay
[3] = system: RBL-2H3; assay: Induction of cell migration in rat RBL2H3 cells at 10 nM after 6 hrs by RTCA; conditions: rbl-2h3, 6 h, 0.01 µM
[4] = Induction of cell migration in rat RBL2H3/ETFR cells stably expressing FPR1 at 10 nM after 6 hrs by RTCA; conditions: 0.01 µM
[5] = organism: Rattus norvegicus; assay: Inhibition of FITC-fMLF induced FPR1 internalization in rat RBL-2H3/ETFR cells at 10 uM preincubated for 30 mins followed by agonist addition measured after 30 mins by confocal fluorescent microscopy
[6] = (§1) Antagonist activity at FPR1 in rat RBL-2H3/ETFR cells assessed as inhibition of fMLF-induced cell migration after 4 hrs by RTCA relative to fMLF
[7] = organism: Rattus norvegicus; assay: as §1
[8] = Rattus norvegicus, RBL-2H3, 4 h, read-out: IC50

N=C(N)NCCC[C@@H]1NC(=O)[C@H](CCC(=O)O)NC(=O)[C@H](CCCNC(=N)N)NC(=O)[C@H](Cc2ccc(O)cc2)NC(=O)[C@H](CO)NC1=O (cyclo(ERSYR))
inhibition [1]: 49% | inhibition [2]: 55% | Activity [3]: Non-Toxic | Activity [4]: Non-Toxic

N=C(N)NCCC[C@@H]1NC(=O)[C@H](CCC(=O)O)NC(=O)[C@H](CCCNC(=N)N)NC(=O)[C@H](Cc2ccc(O)cc2)NC(=O)[C@H](CCC(=O)O)NC1=O (cyclo(EREYR))
inhibition [1]: 61% | inhibition [2]: 61% | Activity [3]: Non-Toxic | Activity [4]: Non-Toxic

N=C(N)NCCC[C@@H]1NC(=O)[C@H](CO)NC(=O)[C@H](CCCNC(=N)N)NC(=O)[C@H](Cc2ccc(O)cc2)NC(=O)[C@H](CCC(=O)O)NC1=O (cyclo(EYRSR))
inhibition [1]: 34% | Activity [3]: Non-Toxic | Activity [4]: Non-Toxic

CSCC[C@H](NC=O)C(=O)N[C@@H](CC(C)C)C(=O)N[C@@H](Cc1ccccc1)C(=O)O [N-FORMYLMETHIONYL-LEUCYLPHENYLALANINE]
inhibition [2]: Active | Activity [4]: Toxic | inhibition [5]: Active

N=C(N)NCCC[C@H](NC(=O)[C@H](CO)NC(=O)[C@H](CCCNC(=N)N)NC(=O)[C@@H](N)COP(=O)(O)O)C(=O)N[C@@H](Cc1ccc(O)cc1)C(N)=O (H-[pS]RSRY-NH2)
inhibition [1]: 58% | Activity [3]: Non-Toxic | Activity [4]: Non-Toxic

N=C(N)NCCC[C@@H]1NC(=O)[C@H](CCC(=O)O)NC(=O)[C@H](CCCNC(=N)N)NC(=O)[C@H](Cc2cccc3ccccc23)NC(=O)[C@H](CO)NC1=O (cyclo([1Nal]RERS))
inhibition [1]: 43% | inhibition [2]: 62% | Activity [3]: Non-Toxic | Activity [4]: Non-Toxic

N=C(N)NCCC[C@@H]1NC(=O)[C@H](CO)NC(=O)[C@H](CO)NC(=O)[C@H](Cc2ccc(O)cc2)NC(=O)[C@H](CCCNC(=N)N)NC1=O (cyclo(RRYSS))
inhibition [1]: 0% | inhibition [2]: inactive | Activity [3]: Non-Toxic | Activity [4]: Non-Toxic | inhibition [5]: inactive

N=C(N)NCCC[C@H](NC(=O)[C@H](COP(=O)(O)O)NC(=O)[C@H](CCCNC(=N)N)NC(=O)[C@@H](N)CO)C(=O)N[C@@H](Cc1ccc(O)cc1)C(N)=O (H-SR[pS]RY-NH2)
inhibition [1]: 67% | inhibition [2]: 67% | Activity [3]: Non-Toxic | IC50 [6]: Dose-dependent effect | IC50 [6, 8]: 0.1 pM | Activity [4]: Non-Toxic | inhibition [5]: Active

H-SRSRY-NH2
inhibition [2]: Active

N=C(N)NCCC[C@@H]1NC(=O)[C@H](CO)NC(=O)[C@H](CCCNC(=N)N)NC(=O)[C@H](Cc2ccc(O)cc2)NC(=O)[C@H](COP(=O)(O)O)NC1=O (cyclo(RSR[pS]Y))
inhibition [1]: 31% | Activity [3]: Non-Toxic | Activity [4]: Non-Toxic

N=C(N)NCCC[C@@H]1NC(=O)[C@H](CCC(=O)O)NC(=O)[C@H](CCCNC(=N)N)NC(=O)[C@H](Cc2ccc3ccccc3c2)NC(=O)[C@H](CO)NC1=O (cyclo([2Nal]RERS))
inhibition [1]: 23% | inhibition [2]: Active | Activity [3]: Non-Toxic | Activity [4]: Non-Toxic

N=C(N)NCCC[C@H](NC(=O)[C@H](Cc1ccc(O)cc1)NC(=O)[C@H](COP(=O)(O)O)NC(=O)[C@H](CO)NC(=O)[C@@H](N)CCCNC(=N)N)C(N)=O (H-RS[pS]YR-NH2)
inhibition [1]: 0% | inhibition [2]: inactive | Activity [3]: Non-Toxic | Activity [4]: Non-Toxic | inhibition [5]: inactive

N=C(N)NCCC[C@@H]1NC(=O)[C@H](CCC(=O)O)NC(=O)[C@H](CCCNC(=N)N)NC(=O)[C@H](Cc2c[nH]c3ccccc23)NC(=O)[C@H](CO)NC1=O (cyclo(ERSWR))
inhibition [1]: 0% | inhibition [2]: inactive | Activity [3]: Non-Toxic | Activity [4]: Non-Toxic

N=C(N)NCCC[C@@H]1NC(=O)[C@H](CO)NC(=O)[C@H](CCCNC(=N)N)NC(=O)[C@H](Cc2ccc(O)cc2)NC(=O)[C@H](CO)NC1=O (cyclo(RSRSY))
inhibition [1]: 75% | inhibition [2]: Active | Activity [3]: Non-Toxic | IC50 [6, 8]: 0.1 pM | inhibition [7]: Dose-dependent effect | Activity [4]: Non-Toxic | inhibition [5]: Active

N=C(N)NCCC[C@@H]1NC(=O)[C@H](COP(=O)(O)O)NC(=O)[C@H](CCCNC(=N)N)NC(=O)[C@H](Cc2ccc(O)cc2)NC(=O)[C@H](CO)NC1=O (cyclo(RSYR[pS]))
inhibition [1]: 36% | Activity [3]: Non-Toxic | Activity [4]: Non-Toxic

N=C(N)NCCC[C@@H]1NC(=O)[C@H](CCC(=O)O)NC(=O)[C@H](CCCNC(=N)N)NC(=O)[C@H](Cc2ccccc2)NC(=O)[C@H](CO)NC1=O (cyclo(ERSFR))
inhibition [1]: 20% | inhibition [2]: Active | Activity [3]: Non-Toxic | Activity [4]: Non-Toxic
